Experiments:
Assay type in all cases: physicochemical
[1] = Mean intrinsic dissolution studies
From the text: Mean intrinsic dissolution rates for exemplary batches of the two forms are shown in Table cC-2 for 3 batches of Form I (SD and % CV for one batch shown) and for Form II.

[2] = Stability of Form I and Form II under various storage conditions
From the text: In each case, the test material was first placed in Primary Packaging Material (LLDPE bag within a HMHDPE/LDPE/LDPE blend bag, and then heat sealed). The Primary Packaging Material was placed in Secondary Packaging Material (HDPE drum). All other impurities were less than 1% at each time point.

[3] = Interconversion slurries of Form I and Form II
Protocol: As shown in the interconversion of slurries experiment summarized below in the Examples in Table B, slurries of Forms I and II are prepared in 2-propanol (IPA) and […] (MEK) at ambient, sub-ambient, and elevated temperatures. In 2-propanol, conversion of Form I to Form II appears to be solubility driven at ambient and sub-ambient temperatures, with little apparent change observed in the ratio of Forms I and II by XRPD analysis over 3 days. Extending the interconversion period to 8 days at room temperature left only a trace of Form I remaining. In 2-propanol, at elevated temperature, only Form II is obtained.
Interconversion studies by slurrying of Form I and Form II are shown in the following Table B in which the starting solid was a mixture of Form I and Form II; IPA is isopropyl alcohol (isopropanol) and MEK is methyl ethyl ketone (2-butanone).

CC[C@H]1OC(=O)[C@@](C)(F)C(=O)[C@H](C)[C@@H](O[C@@H]2O[C@H](C)C[C@H](N(C)C)[C@H]2O)[C@](C)(OC)C[C@@H](C)C(=O)[C@H](C)[C@H]2N(CCCCn3cc(-c4cccc(N)c4)nn3)C(=O)O[C@]12C [Form I Batch B]
Mean intrinsic dissolution rate ([1]; 0.1N Hydrochloric Acid): 10.6 mg/min/cm^2
Mean intrinsic dissolution rate ([1]; Acetate buffer, pH 4.5): 2.8 mg/min/cm^2
Mean intrinsic dissolution rate ([1]; Phosphate buffer, pH 6.8): 0.03 mg/min/cm^2
Mean intrinsic dissolution rate ([1]; Phosphate buffer, pH 7.6): 0.001 mg/min/cm^2
Mean intrinsic dissolution rate ([1]; Water): 0.7 mg/min/cm^2

CC[C@H]1OC(=O)[C@@](C)(F)C(=O)[C@H](C)[C@@H](O[C@@H]2O[C@H](C)C[C@H](N(C)C)[C@H]2O)[C@](C)(OC)C[C@@H](C)C(=O)[C@H](C)[C@H]2N(CCCCn3cc(-c4cccc(N)c4)nn3)C(=O)O[C@]12C [Form I (Lot 4)]
3-Ethynylaniline ([2]; 2-8° C., 3 Month): 0.01%
Assay (on hydrous basis) ([2]; 2-8° C., 3 Month): 98.4%
Chromatographic Purity ([2]; 2-8° C., 3 Month): 98.1%
Water ([2]; 2-8° C., 3 Month): 1.56%
3-Ethynylaniline ([2]; 2-8° C., 6 Month): 0.01%
Assay (on hydrous basis) ([2]; 2-8° C., 6 Month): 98.3%
Chromatographic Purity ([2]; 2-8° C., 6 Month): 98.3%
Water ([2]; 2-8° C., 6 Month): 1.47%
3-Ethynylaniline ([2]; 2-8° C., 12 Month): Not Detected
Assay (on hydrous basis) ([2]; 2-8° C., 12 Month): 98.2%
Chromatographic Purity ([2]; 2-8° C., 12 Month): 98.4%
Water ([2]; 2-8° C., 12 Month): 1.51%
3-Ethynylaniline ([2]; 2-8° C., Initial): 0.01%
Assay (on hydrous basis) ([2]; 2-8° C., Initial): 99.0%
Chromatographic Purity ([2]; 2-8° C., Initial): 98.2%
Water ([2]; 2-8° C., Initial): 0.92%
3-Ethynylaniline ([2]; 25° C./60% RH, 3 Month): 0.01%
Assay (on hydrous basis) ([2]; 25° C./60% RH, 3 Month): 98.3%
Chromatographic Purity ([2]; 25° C./60% RH, 3 Month): 98.1%
Water ([2]; 25° C./60% RH, 3 Month): 1.59%
3-Ethynylaniline ([2]; 25° C./60% RH, 6 Month): Not Detected
Assay (on hydrous basis) ([2]; 25° C./60% RH, 6 Month): 98.2%
Chromatographic Purity ([2]; 25° C./60% RH, 6 Month): 98.4%
Water ([2]; 25° C./60% RH, 6 Month): 1.75%
3-Ethynylaniline ([2]; 25° C./60% RH, 12 Month): Not Detected
Assay (on hydrous basis) ([2]; 25° C./60% RH, 12 Month): 98.1%
Chromatographic Purity ([2]; 25° C./60% RH, 12 Month): 98.4%
Water ([2]; 25° C./60% RH, 12 Month): 1.78%
3-Ethynylaniline ([2]; 25° C./60% RH, Initial): 0.01%
Assay (on hydrous basis) ([2]; 25° C./60% RH, Initial): 99.0%
Chromatographic Purity ([2]; 25° C./60% RH, Initial): 98.2%
Water ([2]; 25° C./60% RH, Initial): 0.92%
3-Ethynylaniline ([2]; 40° C./75% RH, 3 Month): 0.01%
Assay (on hydrous basis) ([2]; 40° C./75% RH, 3 Month): 98.2%
Chromatographic Purity ([2]; 40° C./75% RH, 3 Month): 98.4%
Water ([2]; 40° C./75% RH, 3 Month): 1.65%
3-Ethynylaniline ([2]; 40° C./75% RH, 12 Month): 0.01%
Assay (on hydrous basis) ([2]; 40° C./75% RH, 12 Month): 98.1%
Chromatographic Purity ([2]; 40° C./75% RH, 12 Month): 98.3%
Water ([2]; 40° C./75% RH, 12 Month): 1.82%
3-Ethynylaniline ([2]; 40° C./75% RH, Initial): 0.01%
Assay (on hydrous basis) ([2]; 40° C./75% RH, Initial): 99.0%
Chromatographic Purity ([2]; 40° C./75% RH, Initial): 98.2%
Water ([2]; 40° C./75% RH, Initial): 0.92%

CC[C@H]1OC(=O)[C@@](C)(F)C(=O)[C@H](C)[C@@H](O[C@@H]2O[C@H](C)C[C@H](N(C)C)[C@H]2O)[C@](C)(OC)C[C@@H](C)C(=O)[C@H](C)[C@H]2N(CCCCn3cc(-c4cccc(N)c4)nn3)C(=O)O[C@]12C [Form I (Lot 3)]
3-Ethynylaniline ([2]; 2-8° C., 3 Month): 0.01%
Assay (on hydrous basis) ([2]; 2-8° C., 3 Month): 98.9%
Chromatographic Purity ([2]; 2-8° C., 3 Month): 98.1%
Water ([2]; 2-8° C., 3 Month): 1.63%
3-Ethynylaniline ([2]; 2-8° C., 6 Month): Not Detected
Assay (on hydrous basis) ([2]; 2-8° C., 6 Month): 98.8%
Chromatographic Purity ([2]; 2-8° C., 6 Month): 98.4%
Water ([2]; 2-8° C., 6 Month): 1.61%
3-Ethynylaniline ([2]; 2-8° C., 12 Month): Not Detected
Assay (on hydrous basis) ([2]; 2-8° C., 12 Month): 98.7%
Chromatographic Purity ([2]; 2-8° C., 12 Month): 98.5%
Water ([2]; 2-8° C., 12 Month): 1.69%
3-Ethynylaniline ([2]; 2-8° C., Initial): 0.01%
Assay (on hydrous basis) ([2]; 2-8° C., Initial): 99.5%
Chromatographic Purity ([2]; 2-8° C., Initial): 98.3%
Water ([2]; 2-8° C., Initial): 1.11%
3-Ethynylaniline ([2]; 25° C./60% RH, 3 Month): 0.01%
Assay (on hydrous basis) ([2]; 25° C./60% RH, 3 Month): 98.7%
Chromatographic Purity ([2]; 25° C./60% RH, 3 Month): 98.1%
Water ([2]; 25° C./60% RH, 3 Month): 1.65%
3-Ethynylaniline ([2]; 25° C./60% RH, 6 Month): Not Detected
Assay (on hydrous basis) ([2]; 25° C./60% RH, 6 Month): 98.6%
Chromatographic Purity ([2]; 25° C./60% RH, 6 Month): 98.3%
Water ([2]; 25° C./60% RH, 6 Month): 1.71%
3-Ethynylaniline ([2]; 25° C./60% RH, 12 Month): Not Detected
Assay (on hydrous basis) ([2]; 25° C./60% RH, 12 Month): 98.5%
Chromatographic Purity ([2]; 25° C./60% RH, 12 Month): 98.4%
Water ([2]; 25° C./60% RH, 12 Month): 1.75%
3-Ethynylaniline ([2]; 25° C./60% RH, Initial): 0.01%
Assay (on hydrous basis) ([2]; 25° C./60% RH, Initial): 99.5%
Chromatographic Purity ([2]; 25° C./60% RH, Initial): 98.3%
Water ([2]; 25° C./60% RH, Initial): 1.11%
3-Ethynylaniline ([2]; 40° C./75% RH, 3 Month): 0.01%
Assay (on hydrous basis) ([2]; 40° C./75% RH, 3 Month): 98.5%
Chromatographic Purity ([2]; 40° C./75% RH, 3 Month): 98.0%
Water ([2]; 40° C./75% RH, 3 Month): 1.68%
3-Ethynylaniline ([2]; 40° C./75% RH, 12 Month): 0.01%
Assay (on hydrous basis) ([2]; 40° C./75% RH, 12 Month): 98.3%
Chromatographic Purity ([2]; 40° C./75% RH, 12 Month): 98.3%
Water ([2]; 40° C./75% RH, 12 Month): 1.84%
3-Ethynylaniline ([2]; 40° C./75% RH, Initial): 0.01%
Assay (on hydrous basis) ([2]; 40° C./75% RH, Initial): 99.5%
Chromatographic Purity ([2]; 40° C./75% RH, Initial): 98.3%
Water ([2]; 40° C./75% RH, Initial): 1.11%

CC[C@H]1OC(=O)[C@@](C)(F)C(=O)[C@H](C)[C@@H](O[C@@H]2O[C@H](C)C[C@H](N(C)C)[C@H]2O)[C@@](C)(OC)C[C@@H](C)C(=O)[C@H](C)[C@H]2N(CCCCn3cc(-c4cccc(N)c4)nn3)C(=O)O[C@]12C [Form I Batch C]
Mean intrinsic dissolution rate ([1]; 0.1N Hydrochloric Acid): 7.9 mg/min/cm^2
Mean intrinsic dissolution rate ([1]; Acetate buffer, pH 4.5): 2.7 mg/min/cm^2
Mean intrinsic dissolution rate ([1]; Phosphate buffer, pH 6.8): 0.02 mg/min/cm^2
Mean intrinsic dissolution rate ([1]; Water): 1.6 mg/min/cm^2

CC[C@H]1OC(=O)[C@@](C)(F)C(=O)[C@H](C)[C@@H](O[C@@H]2O[C@H](C)C[C@H](N(C)C)[C@H]2O)[C@](C)(OC)C[C@@H](C)C(=O)[C@H](C)[C@H]2N(CCCCn3cc(-c4cccc(N)c4)nn3)C(=O)O[C@]12C [CEM-101 Form A and B Solids]
XRPD Result ([3]; slurry in IPA, 2-8° C. 3 days): Form I + II
XRPD Result ([3]; slurry in IPA, 2-8° C. 5 days (8 days total), continuation of previous slurry): Form I + II
XRPD Result ([3]; slurry in IPA, 60° C. 3 days): Form II
XRPD Result ([3]; slurry in IPA, RT 3 days): Form I + II
XRPD Result ([3]; slurry in MEK, 2-8° C. 3 days): Form II
XRPD Result ([3]; slurry in MEK, 60° C. 3 days (6 days total), continuation with additional solids): Form II
XRPD Result ([3]; slurry in MEK, RT 3 days): Form II

CC[C@H]1OC(=O)[C@@](C)(F)C(=O)[C@H](C)[C@@H](O[C@@H]2O[C@H](C)C[C@H](N(C)C)[C@H]2O)[C@](C)(OC)C[C@@H](C)C(=O)[C@H](C)[C@H]2N(CCCCn3cc(-c4cccc(N)c4)nn3)C(=O)O[C@]12C [Form I Batch A]
Mean intrinsic dissolution rate ([1]; 0.1N Hydrochloric Acid): 9.4 mg/min/cm^2
Mean intrinsic dissolution rate ([1]; Acetate buffer, pH 4.5): 2.1 mg/min/cm^2
Mean intrinsic dissolution rate ([1]; Phosphate buffer, pH 6.8): 0.004 mg/min/cm^2
Mean intrinsic dissolution rate ([1]; Phosphate buffer, pH 7.6): 0.02 mg/min/cm^2
Mean intrinsic dissolution rate ([1]; Water): 2.0 mg/min/cm^2

— US8759500B2, “Crystalline forms of a macrolide, and uses therefor” (Cempra Pharmaceuticals, Inc., priority 2010, dated 2014)
